# Where two headings read alike, the source gives them in different places.
# Legend:
# [1] = test system: normal fibroblasts (GM08398) transiently expressing GFP-lamin A or GFP-progerin; assay: Nuclear morphology and GFP localization in normal fibroblasts transiently expressing GFP-lamin A or GFP-progerin, exposed to FTI; format: cell-based, human; conditions: 100 nM FTI, 72 hours
# Procedure: (§1) FIG. 7 illustrates the effect of a 72 hour exposure to 100 nM FTI (PD169451) on GFP-lamin A (A) and GFP-progerin (B) localization, protein processing (C) and nuclear morphology (D and E). Confocal microscopy was used to examine the effects of FTIs on transiently-expressed GFP-lamin A (A) and GFP-progerin (B) in normal fibroblasts. Three focal planes are shown—top, middle and bottom (from left to right). Exposure to 100 nM FTI for 72 hours caused about half of the endogenous lamin A to be unprocessed pre-lamin A in normal and HGPS fibroblasts (C). Exposure to the FTI increased the percent of mock transfected cells and GFP-lamin A expressing cells with abnormal nuclear morphology (D). However, the percentage of cells expressing GFP-progerin with an abnormal nuclear morphology decreased by 33% when exposed to the FTI for 72 hours.
# GFP localization: Normal and HGPS fibroblasts were plated on coverslips in six well plates or in chambered microscope slides (BD Biosciences) 24 hours prior to transfection. Fibroblasts were transiently transfected with the GFP-lamin A or GFP-progerin expression constructs using FUGENE®6 transfection reagent (Roche). Seventy-two hours later the cells were washed two times with PBS (pH 7.2) and fixed for 20 minutes at 4° C. with 4% paraformaldehyde in PBS containing 62.5 µg/ml LPC palmitoyl and 1 U/ml rhodamine phalloidin (Molecular Probes) to stain the cytoskeleton. Following three washes with PBS, Prolong Gold mounting medium with DAPI (Molecular Probes) was applied to the coverslips which were then inverted and placed on microscope slides.
# Normal and HGPS fibroblasts were plated on coverslips in 6 well plates 24 hours prior to transfection. Normal fibroblasts were transiently transfected with the GFP-lamin A or GFP-progerin expression constructs using FUGENE®6 transfection reagent (Roche). The following day, the medium was replaced with growth medium containing 0 nM, 100 nM, 500 nM or […] of the FTI, PD169451. […]
# [2] = test system: HGPS fibroblasts (AG11498, P01, HGADFN136, HGADFN004); assay: Nuclear morphology of HGPS fibroblasts maintained in FTI; format: cell-based, human
# Procedure: (§2) FIG. 10 illustrates the effect of long-term exposure to low doses of FTI (PD169451) on the nuclear morphology of normal (GM08398 and HGMDFN090) and HGPS (AG11498, P01, HGADFN136 and HGADFN004) fibroblasts. Fibroblasts were maintained in medium with 0 nM, 10 nM or 100 nM FTI. Cultures were plated in chambered microscope slides 24 hours prior to fixing with 4% paraformaldehyde for nuclear morphology studies. **—Too few cells to count. […] All cell lines were passage 6 at the beginning of the analysis except for HGADFN004, which was at passage 12.
# (§3) Normal and HGPS fibroblasts were maintained in T75 tissue culture flasks with 0 nM, 10 nM, and 100 nM concentrations of the FTI, PD169451, added to the growth medium. The medium was changed every 2 days and the cells were split when they were approximately 80% confluent. Three days prior to each time point, a flask was trypsinized and cells were placed in chambered microscope slides (BD Biosciences) and maintained in the appropriate FTI concentration. Seventy-two hours later the cells were washed two times with PBS (pH 7.2) and fixed for 20 minutes at 4° C. with 4% paraformaldehyde in PBS containing 62.5 µg/ml LPC palmitoyl and 1 U/ml rhodamine phalloidin (Molecular Probes) to stain the cytoskeleton. Following three washes with PBS, […] of ProLong Gold mounting medium with DAPI (Molecular Probes) was applied and the cells were overlaid with a coverslip.
# [3] = test system: normal fibroblasts (GM08398 and HGMDFN090); assay: Nuclear morphology of normal fibroblasts maintained in FTI; format: cell-based, human
# Procedure: as §2, §3
# [4] = test system: normal fibroblasts (GM08398) stably expressing GFP-lamin A, GFP-progerin and GFP-LA(L647R); assay: Nuclear morphology and GFP localization in normal fibroblasts stably expressing GFP fusions (retroviral TET-OFF), exposed to FTI; format: cell-based, human
# Procedure: FIG. 11 illustrates the effect of the FT1, PD169451, on the nuclear morphology of normal fibroblasts (GM08398) stably expressing GFP-lamin A, GFP-progerin and GFP-LA(L647R) using a retroviral TET-OFF® expression vector system (Clontech). Fibroblasts were maintained in medium with 0 nM, 10 nM or 100 nM FTI for 6 days.
# Cultures were plated in chambered microscope slides 24 hours prior to fixing with 4% paraformaldehyde for nuclear morphology studies. Cells were maintained in three predetermined tetracycline concentrations, 0 mM for full expression (A), 0.05 mM for intermediate expression levels (B), and 8 mM for very low expression levels (C). […] Analysis of nuclear morphology was performed in a double blinded fashion with at least 70 cells analyzed per sample.
# FIG. 12 illustrates the effect of FTI on the distribution of GFP signal in normal fibroblasts (GM08398) expressing GFP-lamin A (panels A, B and C), GFP-progerin (D, E and F) and GFP-LA(L647R) (G, H, and I) using a retroviral TET-OFF® expression vector system with various FTI concentrations. Fibroblasts were maintained in medium with 0 nM (A, D, G), 10 nM (B, E, and H) or 100 nM (C, F and I) FTI for six days. Expression levels of the GFP fusions were maintained at levels similar to endogenous levels of lamin A by the addition of 0.05 mg/ml tetracycline. Signals were visualized with a Zeiss AXIOPHOT™ Fluorescent microscope and imaging was performed using the Olympus DP70 Digital Camera System.
# Retroviral Constructs: The pRevTetOff vector and pRevTRE constructs were transfected using FUGENE®6 transfection reagent into the Amphotropic Phoenix retroviral packaging line (Peter Nolan, Stanford University). Forty-eight hours after transfection the media containing retrovirus was filtered through a 0.22 micron filter and used immediately or stored at −70° C. Retroviral infection was performed by exposing target cells to a 1:1 mix of retroviral supernatant and growth medium with 4 μg/ml polybrene.
# By way of example, GFP-lamin A and GFP-progerin were expressed from TET-OFF® retroviral expression vector constructs that allowed for sustained expression and modulation of expression to address the possibility of results due to over-expression of the fusion proteins when the proteins were transiently expressed. In addition, a cleavage minus mutant, GFP-LA(L647R), was included to examine the effect of retaining the farnesyl group without the 50 amino acid deletion found in progerin.
# endogenous lamin A = assay: Lamin A processing (pre-lamin A) by immunoblot after FTI exposure; format: cell-based, human; conditions: 100 nM FTI, 72 hours; normal and HGPS fibroblasts
# Procedure: as §1
# Immunoblotting: Proteins were transferred to Immobilon-P membrane (Millipore) using a Trans-Blot semi-dry electrophoretic transfer cell (BioRad) blocked with 5% dry milk in TBST and probed with lamin A/C specific antibodies according to standard protocols.
# [5] = cited from earlier work
# [6] = 10 nM FTI, 6 days, intermediate expression (0.05 mg/ml tetracycline), p<0.0001
structure (smiles),measurement,setting,value
CC(C)(CNC(=O)CN(Cc1ccc(OCc2ccccc2)cc1)C(=O)[C@H](Cc1cnc[nH]1)NC(=O)OCc1ccccc1)c1ccccc1 [PD169451],effect on the localization of transiently expressed GFP-lamin A and GFP-progerin,[1],significant effect
same,percent of mock transfected cells and GFP-lamin A expressing cells with abnormal nuclear morphology,[1],increased
same,decrease in the percentage of cells expressing GFP-progerin with an abnormal nuclear morphology,[1]; normal fibroblasts transiently expressing GFP-progerin,33%
same,percentage of abnormal nuclei in HGPS fibroblasts and in normal fibroblasts expressing GFP-progerin,[2]; 10 nM FTI,significantly lowered
same,drop in abnormal morphology,"[2]; 10 nM FTI, 14 days, HGPS cell line HGADFN004",12%
same,decrease in abnormal nuclei,"[2]; 10 nM FTI, 14 days, three HGPS lines each",≥ 70%
same,reduction in the percent of cells with abnormal nuclei,"[2]; 10 nM FTI, two days, four HGPS cell lines",~40%
same,growth of HGADFN004 line,"[2]; 100 nM FTI, 14 day time point",failed to grow
same,drop in the percent of cells with abnormal nuclear morphology,"[2]; AG11498 line, various FTI concentrations, three days",≤ 40%
same,FTI dose that caused cells to stop dividing after a week to 10 days,"[2]; long-term exposure, normal and HGPS fibroblasts",greater than 200 nM
same,nuclear morphology phenotype,[2]; normal fibroblasts expressing progerin and HGPS fibroblasts (summary of Example 3),significant improvement
same,"abnormal nuclear morphology in normal fibroblasts, dose dependence","[3]; 0, 10, 100 nM FTI",dose dependent manner
same,nuclear morphology of normal cells,[3]; 10 nM FTI,did not substantially alter
same,abnormal nuclear morphology in normal fibroblasts,"[3]; high doses of the FTI, greater than 200 nM",increase in abnormal nuclear morphology
same,"reduction of percent abnormal nuclei, GFP-LA(L647R)",[4]; [6],67%
same,"reduction of percent abnormal nuclei, GFP-progerin",[4]; [6],71%
same,reorganization of GFP signal for any of the fusion proteins,"[4]; 10 nM FTI, stable expression",did not lead to this drastic reorganization
same,effect on abnormal nuclear morphology at very high expression levels of GFP-progerin or GFP-LA(L647R),"[4]; 10 nM FTI, no tetracycline",could not overcome
same,localization of GFP-lamin A and GFP-progerin,"[4]; 100 nM FTI, stable expression",localize to intranuclear filaments
same,localization of GFP-tagged L647R mutant,"[4]; 100 nM FTI, stable expression",redistributed to intranuclear filaments
same,improvement in abnormal nuclear morphology at 100 nM in comparison to 10 nM,"[4]; 100 nM FTI, intermediate expression of GFP-progerin and GFP-LA(L647R)",less profound
same,endogenous lamin A present as unprocessed pre-lamin A,endogenous lamin A,about half
Cn1cncc1[C@@](N)(c1ccc(Cl)cc1)c1ccc2c(c1)c(-c1cccc(Cl)c1)cc(=O)n2C [tipifarnib],tolerability,"[5]; Phase III trials, including trials involving children",well tolerated
same,tolerability,[5]; clinical trials,well tolerated

# From patent publication US8257915B2, “Farnesyltransferase inhibitors for treatment of laminopathies, cellular aging and atherosclerosis” (Progeria Research Foundation, Inc., priority 2002, dated 2012)
